Measured values from article PMC5656322, “BAK1 is involved in AtRALF1-induced inhibition of root cell expansion” (PLoS Genetics, 2017).
Where no end group is shown, it is not given here.

Legend:
[1] = system: Arabidopsis seedlings, primary root; conditions: ref [10], cited from earlier work
From the text: FERONIA (FER), a receptor-like kinase with an extracellular malectin-like domain, has been identified as the receptor of the root-specific isoform AtRALF1 [10]. LORELEI (LRE) and LRE-like GPI-AP1 (LLG1) are two glycosylphosphatidylinositol-anchored proteins found in ovules and vegetative tissues, respectively, that physically interact with FER and are required for FER delivery to the cell membrane and FER signaling. […] In a search for putative genetic components that might be shared by both the AtRALF1 and BR signaling pathways, we tested mutants lacking different components of the BR signaling pathway in root growth assays with inhibitory concentrations of the AtRALF1 peptide. […] A previous study in which 18 receptor-like proteins were tested in root g ...

[2] = system: Arabidopsis seedlings, primary root; conditions: wild-type Arabidopsis; ref [5]; cited from earlier work
Procedure: To better understand the role of AtRALF1 and BRs in regulating cell expansion, we exposed different mutants and transgenic Arabidopsis plants with altered BR signaling pathways to the peptide hormone AtRALF1 at concentrations that inhibit root growth. Loss-of-function mutants (bri1-301, bsk3-2 and bak1-4), gain-of-function mutants (sud1, bes1-D and bzr1-D) and two overexpressor lines (BRI OX and DWF4 OX) were used in the root growth assays in the presence or absence of 10 μM AtRALF1 (Fig 1A).

[3] = system: cytosolic Ca^2+ in Arabidopsis seedlings; experiment: Ca^2+ mobilization assay (apoaequorin luminescence); format: in vivo, Arabidopsis thaliana
Procedure: The cytoplasmic Ca^2+ assay was performed in Arabidopsis seedlings as described previously. Changes in Ca^2+ levels were measured using an Arabidopsis line homozygous for the single insertion of a transgene encoding a cytoplasmically expressed apoaequorin protein driven by the constitutive promoter 35S [53], here denoted Wt-aeq. Wt-aeq plants were crossed with bak1-3 mutants, and T3 generation plants overexpressing apoaequorin and containing a T-DNA insertion in the BAK1 gene, named bak1-3-aeq, were selected and evaluated using semi-quantitative RT-PCR with specific primers (S1 Table). Arabidopsis seedlings were grown in plates for 4 days. A single seedling was transferred into each well of a 96-well white microplate (Thermo Labsystems) containing 200 μl of medium supplemented with […] coelenterazine cp (Biotium) and incubated in the dark at 24 °C for 16 h. Each well containing a single seedling received recombinant AtRALF1 or acridinium-labeled AtRALF1 at a final concentration of 5, 10 or 100 nM as indicated. The resulting luminescence emission was monitored using a microplate reader (Biotec ELx 800) and 20 time-points for approximately 160 s. The experiments were repeated at least three times using independent biological replicates. The data shown are from one representative experiment.

BAK1-GFP [4] = experiment: Co-immunoprecipitation with microsomal fraction of N. benthamiana leaves expressing BAK1-GFP; format: binding, Arabidopsis thaliana; conditions: 600 nM peptide, 1 h, 4 °C, anti-GFP antibody
Procedure: This assay was performed as previously described with some modifications. The BAK1 coding region was amplified from Arabidopsis genomic cDNA using standard PCR with the primers BAK1 Fw and BAK1 Rv (S1 Table). To generate the p35S-BAK1:GFP plasmid, the fragment was cloned into the pENTR D-TOPO vector and later transferred to the pk7FWG2 vector [56]. Leaves from N. benthamiana plants were agroinfiltrated with p19 vector alone and p19 co-expressed with p35S-BAK1:GFP, as previously described. After 3 days, leaves were homogenized in extraction buffer [300 mM sucrose, 100 mM Tris-HCl pH 7.5, 25 mM EDTA, 25 mM NaF, 1 mM Na2MoO4, 1 mM PMSF, 1 mM DTT and protease inhibitor cocktail (Roche), pH 6.2 adjusted] and centrifuged at 1,000 g for 10 min at 4°C, and the supernatant was then centrifuged at 100,000 g for 50 min at 4°C to precipitate the microsomal pellet. The pellet was resuspended in the extraction buffer plus 0.5% Triton-X and incubated with 600 nM recombinant AtRALF1 or 600 nM RALF1(I6A) for 1 h at 4°C. The complexes were incubated with anti-GFP antibody (Santa Cruz Biotechnology) and Sepharose Beads plus protein A (Life Technologies) overnight at 4°C. […] The AtRALF1/BAK1-GFP complex bound to the beads was eluted with denaturing in 10 μl of 1X loading buffer (NuPAGE LDS buffer) at 95°C for 8 min, then analyzed by SDS-PAGE. The proteins were detected as previously described.

BAK1-GFP [5] = experiment: BAK1 protein accumulation, protein blot anti-GFP; format: in vivo, Arabidopsis thaliana; conditions: pBAK1:BAK1-GFP plants, 1 μM
Procedure: Fig 4 The BAK1 gene is induced by AtRALF1. (A) BAK1 gene expression in the roots of Arabidopsis seedlings (10-days-old) treated with AtRALF1. Root tissues were collected 1 h after treatment. Semi-quantitative RT-PCR and qRT-PCR were performed using total RNA extracted from the roots of untreated (-) or treated (+) plants. GAPDH expression was used as an internal control. (B) Quantification of GFP fluorescence intensity. The values are the mean ± SD of 20 seedlings. Student’s t test was used to compare the values obtained from treated and untreated seedlings. Double asterisk indicates P < 0.05 (Student’s t test); ns, not significant. (C) Representative confocal images of pBAK1:BAK1-GFP seedlings (4 days old) treated with 1 μM AtRALF1. Images were captured 4 h after treatment and were obtained by scanning 10 slices over a distance of 7 μm. MZ, meristematic zone; EZ, elongation zone; DZ, Differentiation zone. Bars, 100 μm. (D) pBAK1:BAK1-GFP plants were treated with water or 1 μM AtRALF1. After treatment, protein extracts from pBAK1:BAK1-GFP roots were subjected to immunoblot analysis with anti-GFP antibody. Ponceau was used to show equal loading of protein.

## AtRALF1: root-specific RALF isoform in Arabidopsis; recombinant peptide hormone produced in E. coli (ATTKYISYQSLKRNSVPCSRRGASYYNCQNGAQANPYSRGCSKIARCRS; ends and bridges not checked; cysteine pairing not given here)
[1]; FERONIA mutant fer4, low concentrations
  root growth inhibition, sensitivity of fer4: insensitive to low concentrations of the AtRALF1 peptide
[1]; bak1-4 mutant, 1 μM
  root growth inhibition: the roots of the bak1-4 mutant were inhibited by the peptide
[2]
  primary root growth inhibition: inhibits the primary root growth of wild-type Arabidopsis plants
[3]; acriAtRALF1 vs unlabeled AtRALF1, apoaequorin seedlings (S17A Fig)
  increase in cytoplasmic Ca^2+: induced an increase in cytoplasmic Ca^2+
[3]; bak1-3-aeq plants, 10 and 100 nM
  cytosolic calcium increase: cytosolic calcium increase similar to plants expressing the apoaequorin gene in a wild-type background
BAK1-GFP [4]
  co-immunoprecipitation with BAK1-GFP: co-immunoprecipitated when the anti-GFP antibody was used
BAK1-GFP [5]
  BAK1 protein accumulation: BAK1 protein accumulation was also verified by protein blot
